In one assay the test system is WM-266-4 cells. The assay is described as follows: Cell Proliferation Inhibitory Test. The note with it: Homo sapiens, 72 h, cultured three days with test compound, MTT, read-out: 50% cell proliferation inhibitory activity (GI50 value). It is filed as cell-based. The method, then:
WM-266-4 cells (ATCC, USA) were seeded in a 96-well plate and cultured overnight. Then, serial dilutions of the sample containing the test compound were prepared, added to each well and cultured another three days. Thereafter, the cell amount in each well was measured by MTT (MOSMANN, T., Rapid colorimetric assay for cellular growth and survival: application to proliferation and cytotoxicity assays. J. Immunol. Methods, 65, 55-63 (1983)). The 50% cell proliferation inhibitory activity (GI50 value) was calculated from the following formula (3). 100×[(T−T0)/(C−T0)]=50 (3)
Here, T represents values from the test compound added wells, C represents the value from the well to which the test compound was not added for three days, and To represents an initial measured value at the time of addition of the test compound.

The next assay addresses T1, human mTOR (Homo sapiens, UniProt P42345).
T1 construct: the portion corresponding to 1362-2549aa at the C terminus of human mTOR; made in house
The assay is described as follows: mTOR Kinase Activity Inhibition Test. It is filed as biochemical. The conditions noted are these: His-tagged mTOR (1362C), biotinylated peptide substrate, ATP, 3 hours at room temperature, fluorescence resonance energy transfer 665 nm/620 nm; read-out: IC50 value of mTOR enzyme inhibitory activity. The method, then: The kinase activity of mTOR was measured in the presence or absence of a test compound. A substrate peptide is phosphorylated by mTOR kinase activity. A complex of streptavidin-XL665 and anti-phosphorylated S6K (Thr389) antibody/anti-mouse IgG-cryptate binds to this phosphorylated peptide. At this moment, fluorescence resonance energy transfer takes place from antibody/anti-mouse IgG-cryptate exposed to light excitation to XL665, which results in emission of fluorescence at 665 nm. The mTOR kinase activity is detected using this principle.
(1) Sample Preparation and Enzymatic Reaction
An HEK293 cell line that constitutively expresses a His tag fused human mTOR has been established. His tag was introduced into the N terminus of the portion corresponding to 1362-2549aa at the C terminus of human mTOR. Cell lysate was prepared from this HEK293 cell line constitutively expressing His-tagged mTOR (1362C), and His-tagged mTOR (1362C) was purified using the His tag affinity according to a conventional method.
Next, an mTOR enzyme solution was prepared, which contains the aforementioned His-tagged mTOR (1362C) enzyme, 8 μg/mL of biotinylated peptide (Biotin-Ahx-[…]-amide (Sigma)), as well as 50 mM HEPES (pH 7.5), 20 mM MnCl2, 1 mg/ml BSA, an appropriate amount of protease inhibitor cocktail (Complete EDTA free, Roche), 100 ng/ml Calyculin A, 4 μg/ml Cantharidin and 10 mM DTT as other components.
The test compound was dissolved in DMSO, and serial dilutions were prepared with 20 μM ATP solution (50 mM HEPES (pH 7.5), 20 μM ATP) to achieve concentrations necessary for the assay. 5 μL of this compound solution was applied to each well of a 384 well small volume white Greiner plate.
5 μL of mTOR enzyme solution was added to the aforementioned well containing the test compound. After mixing, the mixture was incubated at room temperature for 3 hours to carry out the enzymatic reaction.
The same operation was performed with a solution of DMSO in 20 μM ATP solution as a positive control and with a solution of DMSO in 50 mM HEPES (pH 7.5) as a negative control.
(2) Detection of Enzymatic Reaction
After the enzymatic reaction, 5 μl each of an europium solution (a solution of anti-mouse IgG-cryptate (SCETI Medical Labo K.K.) and anti-phosphorylated S6K (Thr389) antibody (Cell Signaling Technology Inc.) in 50 mM HEPES (pH 7.5), 100 mM EDTA and 1.5 mg/ml BSA) and an XL665 solution (a solution of streptavidin-XL665 (SCETI Medical Labo K.K.) in 50 mM HEPES (pH 7.5), 100 mM EDTA, 0.8 M KF and 1.5 mg/ml BSA) were added in this order and then mixed. The mixture was incubated at 4° C. overnight. On the following day, the mixture was returned to room temperature and irradiated with excitation light at 337 nm. Fluorescence at 620 nm and fluorescence at 665 nm were measured with RUBYstar (BMG).
The mTOR inhibitory activity (%) was calculated using the ratio calculated from the measured values as an index of enzyme activity. Here, the ratio was calculated from the following formula (I). Ratio=10000×665 nm fluorescence value/620 nm fluorescence value (1)
The mTOR enzyme inhibitory activity (%) was calculated from the following formula (2). mTOR enzyme inhibitory activity (%)=100×[(P−S)/(P−N)] (2)
P: Ratio in well of positive control
N: Ratio in well of negative control
S: Ratio in well containing test compound
Further, an optimal curve was calculated based upon each concentration of the test compound prepared in serial dilutions and the mTOR enzyme inhibitory activity (%) at that concentration. The concentration at which 50% inhibition occurred was calculated as the IC50 value of mTOR enzyme inhibitory activity.

T1 sequence (P42345 1362-2549): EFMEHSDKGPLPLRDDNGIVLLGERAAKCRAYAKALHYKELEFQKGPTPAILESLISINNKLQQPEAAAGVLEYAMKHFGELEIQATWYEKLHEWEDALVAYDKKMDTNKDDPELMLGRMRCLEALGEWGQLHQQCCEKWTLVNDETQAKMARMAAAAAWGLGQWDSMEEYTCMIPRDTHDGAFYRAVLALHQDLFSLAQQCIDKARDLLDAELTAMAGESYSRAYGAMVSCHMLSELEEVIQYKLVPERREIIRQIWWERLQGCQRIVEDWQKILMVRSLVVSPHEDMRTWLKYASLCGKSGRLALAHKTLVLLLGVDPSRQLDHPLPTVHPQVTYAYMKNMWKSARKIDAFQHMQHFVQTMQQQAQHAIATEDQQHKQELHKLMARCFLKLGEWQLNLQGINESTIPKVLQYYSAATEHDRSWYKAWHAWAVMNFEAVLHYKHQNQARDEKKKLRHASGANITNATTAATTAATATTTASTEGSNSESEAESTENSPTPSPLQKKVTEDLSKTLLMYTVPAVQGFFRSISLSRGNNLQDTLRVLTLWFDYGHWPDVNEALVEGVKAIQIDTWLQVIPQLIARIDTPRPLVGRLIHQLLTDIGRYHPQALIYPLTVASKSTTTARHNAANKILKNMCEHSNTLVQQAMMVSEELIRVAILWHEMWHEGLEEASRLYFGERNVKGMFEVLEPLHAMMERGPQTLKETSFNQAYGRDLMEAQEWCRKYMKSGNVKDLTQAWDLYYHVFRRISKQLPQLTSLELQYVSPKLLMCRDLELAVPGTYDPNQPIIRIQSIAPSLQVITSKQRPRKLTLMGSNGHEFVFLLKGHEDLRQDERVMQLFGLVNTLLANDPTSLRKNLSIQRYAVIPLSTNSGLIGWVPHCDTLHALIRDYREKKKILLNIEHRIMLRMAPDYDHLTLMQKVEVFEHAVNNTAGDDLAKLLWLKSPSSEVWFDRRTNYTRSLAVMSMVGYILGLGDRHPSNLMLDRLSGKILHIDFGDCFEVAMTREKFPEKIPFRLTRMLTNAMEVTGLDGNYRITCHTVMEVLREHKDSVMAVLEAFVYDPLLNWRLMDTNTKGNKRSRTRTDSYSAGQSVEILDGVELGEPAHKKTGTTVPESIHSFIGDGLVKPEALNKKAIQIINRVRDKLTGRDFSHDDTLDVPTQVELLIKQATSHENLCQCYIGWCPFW

With `CO[C@H]1CCO[C@@H](Cn2c(=O)[nH]c3ncc(-c4cnc5[nH]ccc5c4)cc32)C1` (racemic) [Example 114, 2,6-Anhydro-1,3,5-trideoxy-4-O-methyl-1-[2-oxo-6-(1H-pyrrolo[2,3-b]pyridin-5-yl)-2,3-dihydro-1H-imidazo[4,5-b]pyridin-1-yl]-DL-threo-hexitol], in the assay on WM-266-4 cells, the GI50 is below 3000 nM. In addition, the concentration for half-maximal inhibition (IC50) at human mTOR is below 50 nM.
Taken in the same sequence, the figures for `Cc1c(-c2cnc3[nH]c(=O)n(C[C@H]4CC[C@@H](O)CO4)c3c2)cnc2[nH]ccc12` (racemic) [Example 141, 2,6-Anhydro-1,3,4-trideoxy-1-[6-(4-methyl-1H-pyrrolo[2,3-b]pyridin-5-yl)-2-oxo-2,3-dihydro-1H-imidazo[4,5-b]pyridin-1-yl]-DL-threo-hexitol] were below 3000 nM and below 50 nM.
As for `CO[C@@H]1CC[C@H](Cn2c(=O)[nH]c3ncc(-c4cnc5[nH]ccc5c4C)cc32)OC1` (racemic) [Example 142, 2,6-Anhydro-1,3,4-trideoxy-5-O-methyl-1-[6-(4-methyl-1H-pyrrolo[2,3-b]pyridin-5-yl)-2-oxo-2,3-dihydro-1H-imidazo[4,5-b]pyridin-1-yl]-DL-threo-hexitol], in the assay on WM-266-4 cells, the GI50 is below 3000 nM. Moreover, at human mTOR, the IC50 is below 50 nM.
In the case of `O=c1[nH]c2ncc(-c3ccc4[nH]ccc4c3)cc2n1CC1CC1` [Example 1, 1-(Cyclopropylmethyl)-6-(1H-indol-5-yl)-1,3-dihydro-2H-imidazo[4,5-b]pyridin-2-one], the GI50 in the assay with WM-266-4 cells was below 3000 nM. The IC50 on human mTOR is below 50 nM.
Taken in the same sequence, the figures for `O=c1[nH]c2ncc(-c3ccc4[nH]ccc4c3)cc2n1C1CCOCC1` [Example 2, 6-(1H-Indol-5-yl)-1-(tetrahydro-2H-pyran-4-yl)-1,3-dihydro-2H-imidazo[4,5-b]pyridin-2-one] were below 3000 nM and 100 to 5000 nM.
The matching figures for `O=c1[nH]c2ncc(-c3ccc4[nH]ccc4c3)cc2n1CCC1CCOCC1` [Example 3, 6-(1H-Indol-5-yl)-1-[2-(tetrahydro-2H-pyran-4-yl)ethyl]-1,3-dihydro-2H-imidazo[4,5-b]pyridin-2-one]: below 3000 nM and below 50 nM.
Taken in the same sequence, the figures for `O=c1[nH]c2ncc(-c3ccc4[nH]ccc4c3)cc2n1CC1CCOCC1` [Example 4, 6-(1H-Indol-5-yl)-1-(tetrahydro-2H-pyran-4-ylmethyl)-1,3-dihydro-2H-imidazo[4,5-b]pyridin-2-one] were below 3000 nM and below 50 nM.
Take `O=c1[nH]c2ncc(-c3cnc4ccccc4c3)cc2n1CC1CCOCC1` [Example 5, 6-Quinolin-3-yl-1-(tetrahydro-2H-pyran-4-ylmethyl)-1,3-dihydro-2H-imidazo[4,5-b]pyridin-2-one]: the GI50 in the assay on WM-266-4 cells was below 3000 nM. Moreover, the half-maximal inhibitory concentration (IC50) at human mTOR was below 50 nM.
Taken in the same sequence, the figures for `O=c1[nH]c2ncc(-c3ccc4[nH]ccc4c3)cc2n1CC1CCCCC1` [Example 6, 1-(Cyclohexylmethyl)-6-(1H-indol-5-yl)-1,3-dihydro-2H-imidazo[4,5-b]pyridin-2-one] were below 3000 nM and below 50 nM.
The matching figures for `Cc1nc2[nH]c(=O)n(CC3CCOCC3)c2cc1-c1ccc2[nH]ccc2c1` [Example 7, 6-(1H-Indol-5-yl)-5-methyl-1-(tetrahydro-2H-pyran-4-ylmethyl)-1,3-dihydro-2H-imidazo[4,5-b]pyridin-2-one]: below 3000 nM and below 50 nM.
The matching figures for `Cc1c(-c2ccc3[nH]ccc3c2)cnc2[nH]c(=O)n(CC3CCOCC3)c12` [Example 8, 6-(1H-Indol-5-yl)-7-methyl-1-(tetrahydro-2H-pyran-4-ylmethyl)-1,3-dihydro-2H-imidazo[4,5-b]pyridin-2-one]: 3000 to 25000 nM and 100 to 5000 nM.
For `CS(=O)(=O)N1CCC(Cn2c(=O)[nH]c3ncc(-c4ccc5[nH]ccc5c4)cc32)CC1` [Example 9, 6-(1H-Indol-5-yl)-1-{[1-(methanesulfonyl)piperidin-4-yl]methyl}-1,3-dihydro-2H-imidazo[4,5-b]pyridin-2-one], the GI50 in the assay with WM-266-4 cells was below 3000 nM. For the same compound, on human mTOR, the 50% inhibitory concentration (IC50) was below 50 nM.

The IC50 is the concentration that gives 50% inhibition.

(Values after patent publication US8436012B2, “Imidazopyridin-2-one derivatives” (Daiichi Sankyo Company, Limited, priority 2008, dated 2013).)
